Experiments:
KBM-5 cells = test: Cytotoxicity (MTT) assay with TNF and chemotherapeutic drugs; assay type: cell-based, human; settings: 50 μM guggulsterone, 72 hours
Method: (§1) Cytotoxicity Assay: Cytotoxicity was assayed by the modified tetrazolium salt 3-(4-5-dimethylthiozol-2-yl)2-5-diphenyl-tetrazolium bromide (MTT) assay (Bharti et al., 2003). Briefly, cells (5000 cells/well) were incubated in the presence or absence of the indicated test sample in a final volume of 0.1 ml for 72 hours at 37° C. Thereafter, 0.025 ml of MTT solution (5 mg/ml in PBS) was added to each well. After a 2 hour incubation at 37° C., 0.1 ml of the extraction buffer (20% SDS, 50% dimethylformamide) was added. After an overnight incubation at 37° C., the optical densities at 570 nm were measured using a 96-well multiscanner autoreader (Dynatech MR5000), with the extraction buffer as blank. The percent cytotoxicity was determined as follows: (1−(A570 of test sample)/(A570 of control sample)×100%.

[1] = tested on: inducible nitric oxide synthetase (iNOS); settings: Meselhy et al., 2003; cited from earlier work
STAT3 = test: IL-6-inducible STAT3 phosphorylation in RPMI 8226 cells, Western blot; assay type: cell-based, human
Method: Western blot. For detection of STAT proteins, whole-cell extracts were prepared by lysing the guggulsterone-treated cells in lysis buffer (20 mM Tris, pH 7.4, 250 mM NaCl, 2 mM EDTA, pH 8.0, 0.1% Triton −X100, 0.01 mg/ml aprotinin, 0.005 mg/ml leupeptin, 0.4 mM PMSF, and 4 mM NaVO4). Lysates were then spun at 14,000 rpm for 10 min to remove insoluble material, and resolved on a 7.5% gel. After electrophoresis, the proteins were electrotransferred to a nitrocellulose membrane, blocked with 5% nonfat milk, and probed with anti-STAT antibodies (1:1000) overnight at 4° C. The blot was washed, exposed to HRP-conjugated secondary antibodies for 1 h, and finally examined by chemiluminescence (ECL, Amersham Pharmacia Biotech. Arlington Heights, Ill.).

NF-κB [2] = test: TNF-induced NF-κB activation by EMSA in A549, Jurkat and KBM-5 cells; assay type: cell-based, human; settings: 50 μM, 4 hours, then 0.1 nM TNF 30 min
Method: (§2) NF-κB Activation: To determine NF-κB activation, EMSA was carried out as previously described (Chaturvedi et al., 2000). Briefly, nuclear extracts prepared from cells (2×10^6/ml) treated with TNF were incubated with ^32P-end-labeled 45-mer double-stranded NF-κB oligonucleotide (8 μg of protein with […] of DNA) from the human immunodeficiency virus long terminal repeat, 5′-[…] GGCGTGG-3′ (SEQ ID NO:1) (boldface indicates NF-κB binding sites), for 15 min at 37° C. The DNA-protein complex formed was separated from free oligonucleotide on 6.6% native polyacrylamide gels. A double-stranded mutated oligonucleotide, 5′-[…]-3′ (SEQ ID NO:2), was used to examine the specificity of binding of NF-κB to the DNA. The specificity of binding was also examined by competition with the unlabeled oligonucleotide. For supershift assays, nuclear extracts prepared from TNF-treated cells were incubated with antibodies against either the p50 or the p65 subunit of NF-κB for 30 min at room temperature before the complex was analyzed by EMSA. The dried gels were visualized, and radioactive bands were quantitated using a PHOSPHORIMAGER™ (Molecular Dynamics, Sunnyvale, Calif.) using IMAGEQUANT™ software.

NF-κB [3] = test: NF-κB activation by EMSA in H1299 cells; assay type: cell-based, human
Method: as §2

tumor cells = test: Antiproliferative effects against tumor cells (MTT); assay type: cell-based, human
Method: as §1, with “Briefly, cells (5000 cells/well) were incubated in the presence or absence of the indicated test sample in a final volume of 0.1 ml for 72 hours at 37° C.” left out
Cytotoxicity assay. The cytotoxic effects of guggulsterone was determined by the MTT uptake method. Briefly, 5000 cells were incubated with guggulsterone in triplicate in a 96-well plate at 37° C. MTT solution was then added to each well. After a 2-h incubation at 37° C., extraction buffer (20% SDS, 50% dimethylformamide) was added, the cells were incubated overnight at 37° C., and the OD was then measured at 570 nm using a 96-well multiscanner (Dynex Technologies, MRX Revelation, Chantilly, Va.).

U937 cells = test: Annexin V and TUNEL assays; assay type: cell-based, human
Method: Annexin V Assay. One of the early indicators of apoptosis is the rapid translocation and accumulation of the membrane phospholipid phosphatidylserine from the cell's cytoplasmic interface to the extracellular surface. This loss of membrane asymmetry can be detected using the binding properties of annexin V. To detect apoptosis, annexin V antibody conjugated with the fluorescent dye FITC was used. Briefly, 1×10^6 cells were pretreated with 10 μM guggulsterone for various time points and then subjected to annexin V staining. Cells were washed, stained with FITC-conjugated anti-annexin V antibody, and then analyzed with a flow cytometer (FACSCalibur; BD Biosciences). TUNEL Assay. Apoptosis was also assessed by the terminal deoxynucleotidyl transferase-mediated deoxyuridine triphosphate nick end-labeling (TUNEL) method, which examines DNA strand breaks that occur during apoptosis, using an in situ cell death detection reagent (Roche Molecular Biochemicals, Mannheim, Germany). Assays were performed using 5×10^5 cells that were incubated with 10 μM guggulsterone for 24 h and then fixed with 4% paraformaldehyde, and permeabilized with 0.1% Triton-X 100 in 0.1% sodium citrate. After being washed, the cells were incubated with reaction mixture for 60 min at 37° C. Stained cells were analyzed with a flow cytometer (FACSCalibur).

[4] = H1299, 4 h pre-incubation, 0.1 nM TNF 30 min

Structure (SMILES): CC=C1C(=O)C[C@H]2[C@@H]3CCC4=CC(=O)CC[C@]4(C)[C@H]3CC[C@]12C [guggulsterone, 4,17(20)-pregnadiene-3,16-dione]
- cytotoxic effects of TNF, paclitaxel and doxorubicin in combination with guggulsterone (KBM-5 cells): enhanced the cytotoxic effects of TNF, paclitaxel and doxorubicin
- iNOS expression induced by LPS in macrophages [1]: inhibiting inducible nitric oxide synthetase (iNOS) expression
- exposure time sufficient to completely suppress IL-6-induced STAT3 phosphorylation (STAT3; 25 μM): 4 h
- IL-6-induced STAT3 phosphorylation (STAT3; 25 μM, IL-6 10 ng/ml 10 min): blocked by guggulsterone in a time-dependent manner
- STAT3 phosphorylation by guggulsterone alone (STAT3; data not shown): had no effect on STAT3 phosphorylation
- TNF-induced NF-κB activation in A549, Jurkat and KBM-5 cells (NF-κB [2]): completely inhibited this activation
- minimum time required for complete inhibition of NF-κB activation (NF-κB [3]; H1299, 50 μM guggulsterone, 0.1 nM TNF 30 min): 4 h
- TNF-mediated NF-κB activation, dose dependence (NF-κB [3]; [4]): inhibited TNF-mediated NF-κB activation in a dose-dependent manner
- concentration of maximum inhibition of TNF-mediated NF-κB activation (NF-κB [3]; [4]): 50 µM
- NF-κB activation induced by TNF, IL-1β, PMA, H2O2, cigarette smoke and okadaic acid (EMSA) (NF-κB [3]; H1299 cells, 50 μM guggulsterone pre-incubated 4 h): suppressed the NF-κB activation induced by all these agents
- NF-κB activation by guggulsterone by itself (NF-κB [3]; H1299 nuclear extracts, up to 50 μM): by itself did not activate NF-κB
- proliferation of head and neck, lung, melanoma, multiple myeloma, leukemia and breast cancer cells (tumor cells; 2000 cells in 0.1 ml, six days, MTT): suppressed the proliferation of a wide variety of cells
- proliferation of human leukemia, head and neck carcinoma, multiple myeloma, lung carcinoma, melanoma, breast carcinoma and ovarian cancer cell lines (tumor cells; Example 2): inhibits the proliferation
- proliferation of drug resistant cancer cells (tumor cells; STI-resistant K562, dexamethasone resistant MM1, doxorubicin resistant breast cancer cell lines): inhibited the proliferation of drug resistant cancer cells
- number of Annexin V and TUNEL positive cells (U937 cells): increased the number of Annexin V and TUNEL positive cells

— patent publication US20060019907A1, “Guggulsterone: an inhibitor of nuclear factor - kappaB and IkappaBalpha kinase activation and uses thereof” (Research Development Foundation, priority 2004, published 2006)
